Measured values as given in patent US20260183269A1, “PHARMACEUTICAL COMPOSITION FOR PREVENTION OR TREATMENT OF DRUG-RELATED PEPTIC ULCER COMPRISING ZASTAPRAZAN OR PHARMACEUTICALLY ACCEPTABLE SALT THEREOF” (priority 2022, published 2026).
Each block holds one molecule with its values, some of them ahead of it.

Legend:
[1] = Clinical PK interaction, PART 2: zastaprazan and meloxicam in healthy subjects; assay type: in vivo, human (healthy subjects)
Procedure: (§1) Zastaprazan may be used not only for acid-related gastric diseases but also for preventing gastric damage caused by NSAIDs.
(§2) • JP-1366, 20 mg 2 capsules (zastaprazan citrate salt 40 mg)
• Mobic capsule 15 mg (meloxicam 15 mg)
Subjects who volunteered for PART 2 were assigned a subject number on the day before the first clinical trial drug administration (−1 d) of Period 1, and then administered two JP-1366 capsules on 1 d to 5 d of Period 1, administered one meloxicam capsule on 15 d to 19 d of Period 2, and co-administered two JP-1366 capsules and one meloxicam capsule on 22 d to 26 d of Period 3. Blood samples were collected from each subject at a designated time for the PK evaluation of the clinical trial drug, and all subjects underwent safety evaluation according to the designated schedule.
(§3) Blood samples were collected at designated times for the PK evaluation of zastaprazan (JP-1366).

[2] = system: rat gastric damage model induced by naproxen; assay: Antiulcer activity in naproxen-induced acute peptic ulcer (gastric damage) rat model; assay type: in vivo, Male Sprague-Dawley (SD) rat
Procedure: [table] […] The dose for each individual was converted based on the body weight before administration, and is administered orally in a dosage of 5 ml per kg of body weight. […] Administration frequency and administration period: Once a day for five days (a total of 5 times) After the test, the gastric damage by the test substance was evaluated using the ulcer index. […] The removed stomach was incised along the greater curvature, the contents are removed, and the incised stomach was washed cleanly with saline solution, spread out well with a cotton swab, fixed with pins, and then photographed. The gastric damage area and the total stomach area were measured from the photographed stomach using an image program (Leica Application Suite V4), and the ulcer index was calculated as Ulcer index (%)=Damage area (mm^2)/Total area (mm^2)×100. The experimental results were statistically analyzed through Mann-Whitney analysis using a commercial statistical processing program (IBM SPSS Statistics version 25.0).

[3] = Clinical PK interaction, PART 1: zastaprazan and aceclofenac in healthy subjects; assay type: in vivo, human (healthy subjects); conditions: for Cmax / AUC(0-t): human, oral; for Cmax: n = 22, plasma, mean ± SD; for AUC(0-t): plasma, n = 22, mean ± SD
Procedure: as §1, §2
• Aertal tablet (aceclofenac 100 mg)
Subjects who volunteered for PART 1 were assigned a subject number on the day before the first clinical trial drug administration (−1 d) of Period 1, and then administered one aceclofenac tablet on 1 d of Period 1, administered two JP-1366 capsules on 4 d to 8 d of Period 2, and co-administered two JP-1366 capsules and one aceclofenac tablet on 9 d of Period 3. Blood samples were collected from each subject at a designated time for the PK evaluation of the clinical trial drug, and all subjects underwent safety evaluation according to the designated schedule.
as §3

[4] = clinical; assay type: in vivo, human (healthy subjects)
Procedure: as §2
Blood samples were collected from each subject at a designated time for the PK evaluation of the clinical trial drug, and all subjects underwent safety evaluation according to the designated schedule.
as §3

[5] = Safety evaluation of zastaprazan with aceclofenac, meloxicam, or naproxen in healthy subjects; assay type: in vivo, human (healthy subjects); conditions: zastaprazan 40 mg alone and co-administered with aceclofenac 100 mg, meloxicam 15 mg or naproxen 500 mg
Excerpt: Zastaprazan may be used not only for acid-related gastric diseases but also for preventing gastric damage caused by NSAIDs. […] Blood samples were collected from each subject at a designated time for the PK evaluation of the clinical trial drug, and all subjects underwent safety evaluation according to the designated schedule. All subjects who completed the clinical trial underwent a post-study visit on 14 d to 20 d, including vital sign measurement, physical examination, adverse reaction check, confirmation of prior/concurrent medication, clinical laboratory tests, and electrocardiography. […] Blood samples were collected from each subject at a designated time for the PK evaluation of the clinical trial drug, and all subjects underwent safety evaluation according to the designated schedule. All subjects who completed the clinical trial underwent a post-study visit on 31 d to 37 d, including vital sign measurement, physical examination, adverse reaction check, confirmation of prior/concurrent medication, clinical laboratory tests, and electrocardiography. […] Blood samples were collected from each subject at a designated time for the PK evaluation of the clinical trial drug, and all subjects underwent safety evaluation according to the designated schedule. […]

AUC(0-t) ([1]; human, in vivo, oral, M (meloxicam 15 mg alone), n = 22, mean ± SD, read-out: meloxicam AUCT, SS): 41800 ± 16400 ng·h/mL | AUC(0-t) ([1]; human, in vivo, oral, Z + M (zastaprazan 40 mg and meloxicam 15 mg), n = 22, mean ± SD, read-out: meloxicam AUCT, SS): 44000 ± 18800 ng·h/mL | Cmax ([1]; human, oral, M (meloxicam 15 mg alone), n = 22, plasma, mean ± SD, read-out: meloxicam Cmax, SS): 2480 ± 880 ng/mL | Cmax ([1]; human, oral, Z + M (zastaprazan 40 mg and meloxicam 15 mg), n = 22, plasma, mean ± SD, read-out: meloxicam Cmax, SS): 2640 ± 920 ng/mL
SMILES: Cc1cnc(NC(=O)C2=C(O)c3ccccc3S(=O)(=O)N2C)s1 [Meloxicam, meloxicam, reference compound]

geometric mean ratio (GMR) [90% CI] of zastaprazan AUCT,SS ([3]; Z+A to Z): 0.9490 (0.9096 to 0.9902) | geometric mean ratio (GMR) [90% CI] of zastaprazan Cmax,SS ([3]; Z+A to Z): 1.0868 (0.9554 to 1.2362) | Cmax ([3]; Z (zastaprazan 40 mg alone), read-out: zastaprazan Cmax, SS): 242 ± 84 ng/mL | AUC(0-t) ([3]; Z (zastaprazan 40 mg alone), read-out: zastaprazan AUCT, SS): 1540 ± 724 ng·h/mL | AUC(0-t) ([3]; Z + A (zastaprazan 40 mg and aceclofenac 100 mg), read-out: zastaprazan AUCT, SS): 1440 ± 627 ng·h/mL | GMR [90% CI] of zastaprazan AUCT,SS ([1]; human, in vivo): 1.3332 (1.1494 to 1.5463) | AUC(0-t) ([1]; human, in vivo, 40 mg): 1120 ± 534 ng·h/mL | Cmax ([1]; human, in vivo, 40 mg): 237 ± 72.8 ng/mL | AUC(0-t) ([4]; human, in vivo, oral, Z (zastaprazan 40 mg alone), n = 22, mean ± SD, read-out: zastaprazan AUCT, SS): 1380 ± 695 ng·h/mL | Cmax ([4]; human, oral, Z (zastaprazan 40 mg alone), n = 22, plasma, mean ± SD, read-out: zastaprazan Cmax, SS): 264 ± 88.5 ng/mL
SMILES: Cc1cccc(C)c1CNc1cc(C(=O)N2CCC2)cn2c(C)c(C)nc12.O=C(O)CC(O)(CC(=O)O)C(=O)O [Zastaprazan, azetidin-1-yl{8-[(2,6-dimethylbenzyl)amino]-2,3-dimethylimidazo[1,2-a]pyridin-6-yl}methanone citrate salt]
ulcer area (antiulcer activity), FIG. 1 ([2]; JP-1366 2 mg/kg oral once a day for five days with naproxen 40 mg/kg, non-fasting rats, stomach removed 4 h after last naproxen): rapid decrease in the ulcer area | antiulcer efficacy compared with esomeprazole ([2]; JP-1366 2 mg/kg vs esomeprazole 2 mg/kg oral, once a day for five days with naproxen 40 mg/kg): superior to that of the control substance, esomeprazole | PK interaction between zastaprazan and aceclofenac ([3]; summary of PART 1): No clinically significant PK interactions | PK interaction between zastaprazan and meloxicam ([1]; summary of PART 2): No clinically significant PK interactions | PK interaction between zastaprazan and naproxen ([4]; summary of PART 3): No clinically significant PK interactions | safety [5]: no safety concerns

Cmax ([3]; A (aceclofenac 100 mg alone), read-out: aceclofenac Cmax, SS): 10100 ± 3160 ng/mL | Cmax ([3]; Z + A (zastaprazan 40 mg and aceclofenac 100 mg), read-out: aceclofenac Cmax, SS): 11800 ± 2560 ng/mL | AUC(0-t) ([3]; A (aceclofenac 100 mg alone), read-out: aceclofenac AUCT, SS): 20400 ± 4870 ng·h/mL | AUC(0-t) ([3]; Z + A (zastaprazan 40 mg and aceclofenac 100 mg), read-out: aceclofenac AUCT, SS): 20800 ± 3840 ng·h/mL
SMILES: O=C(O)COC(=O)Cc1ccccc1Nc1c(Cl)cccc1Cl [Aceclofenac, aceclofenac, reference compound]
